The subject of one series is CD138+ myeloma cells. In words: Unsorted myeloma patient bone marrow, flow cytometry: CD138+ myeloma cells. It is filed as cell-based, human. How it is done:
(§1) Flow cytometry. HMCL were treated as indicated and then washed in cold phosphate-buffered saline (PBS) and resuspended in buffer containing AnnexinV-FITC and propidium iodide (BD Biosciences, San Jose, Calif.) for 15 minutes at room temperature. Cells (10^5) were subsequently diluted and analyzed immediately by flow cytometry (FACScan, BD Biosciences, San Jose, Calif.) using CellQuest software. Patient bone marrow specimens were prepared and analyzed in a similar fashion using AnnexinV-FITC and anti-CD138-PE (BD Biosciences, San Jose, Calif.).
(§2) As mouse embryos that lack any D-cyclins eventually die from hematopoietic failure (Kozar et al., Cell, 118, 477-91 (2004)), the bone marrow might be predicted to be one of the most sensitive non-malignant tissue to be affected by drugs targeting cyclin D expression. Unsorted bone marrow samples from myeloma patients were treated with kinetin riboside to assess the relative cytotoxicity of this drug on malignant versus non-malignant marrow cells. Bone marrow samples were first processed to remove non-nucleated red cells and were then treated for 48 hours with kinetin riboside (5 μM).
Background: In flow cytometry, cells or beads pass a laser one at a time.

Series [1] has as its system HMCL. Briefly: Annexin V / propidium iodide flow cytometry of HMCL. The series is classed as cell-based, human. The method, then:
as §1

In series [2] the test system is HMCL. Briefly: Cell cycle profiling of HMCL by flow cytometry. It is filed as cell-based, human. The method, then: Cell cycle profiling. HMCL were incubated with drug or vehicle as indicated, washed and resuspended in 1 mL PBS. Ice cold ethanol was added dropwise to 75% with regular mixing, and suspensions were incubated at −20° C. for 1 hour. Cells were washed again with PBS and resuspended in 0.1 mL RNAse A (100 μg/mL) at room temperature for 5-10 minutes. Propidium iodide (200 μL×100 μg/mL) was added immediately prior to analysis by flow cytometry. Cellular aggregates were excluded using CellQuest Doublet Discriminator Module, and cell cycle profile was determined using ModFit LT Mac 3.1 SP2 (Verity Software House, TopSham, Me.).

Series [3] is described as follows: Tolerability of kinetin riboside in xenografted BNX mice. The series is classed as in vivo. How it is done:
Female nude X-linked immune-deficient (BNX) mice purchased from NCI-Frederick were used for in vivo studies. Animals had access to food and water ad libitum and were handled in accordance with animal care and use guidelines. Eight-week-old mice were inoculated with My5 or 8226 (2×10^7) MM cells subcutaneously (s.c.) in the right flank. Kinetin riboside (pre-dissolved in DMSO at 500 mg/mL and stored at −20° C.) was formulated daily by dropwise dissolution to 3.7 mg/mL in pre-warmed (37° C.) 0.9% saline, 1% β2-hydroxypropylcyclodextrin (Sigma) solution and was administered 1×-5× daily at 85 mg/kg/dose. The first dose daily was given intraperitoneally and remaining doses were given s.c. with increasing dosing intervals (30, 60, 120, 180 minutes). Tumor volumes were measured using vernier calipers and calculated with the formula L×W×H×2/3. P-values were calculated by paired t-test (JMP 6.0, SAS; Cary, N.C.).
The anti-tumor activity of kinetin riboside in vivo was evaluated against My5 and 8226 human myeloma tumors grown as xenografts in nude mice. Drug or vehicle were initially administered once daily with dosing up to100 mg/kg/day, however, no effect on 8226 or My5 (FIG. 14A) tumor growth was observed. […] Xenograft studies were then repeated with 8226 tumors using kinetin riboside 85 mg/kg 4× daily upfront, started when tumors had reached a mean volume of 135 mm^3 (FIG. 14B). […] No effects on neutrophil counts (at 14 days treatment) or on body weight were observed.

The test system of series [4] is CD138− hematopoietic cells. In words: Unsorted myeloma patient bone marrow, flow cytometry: CD138- non-malignant cells. It is filed as cell-based. The method, then:
as §1, §2

For a further series, the system named is caspase 9. Briefly: Immunoblot of caspase 9 cleavage in HMCL. It is filed as cell-based, human. To be noted: HMCL and CD138+ patient myeloma cells. The method, then:
Immunoblotting. Cytosolic extracts were prepared from HMCL or purified patient CD138^+ myeloma cells following exposure to kinetin riboside. Cells were washed with cold PBS, resuspended in cold RIPA buffer (5×10^6 cells/100 μL) containing fresh protease and phosphatase inhibitors (Santa Cruz Biotechnology, Santa Cruz, Calif.) and incubated on ice for 30 minutes with gentle mixing. The supernatant was repossessed following high speed centrifugation, and protein concentrations were determined by the Bradford assay. Immunoblot assays were performed as described elsewhere (Krajewski et al., Anal. Biochem., 236:221-228 (1996)). Briefly, equal amounts of protein were separated by SDS-PAGE and transferred to a PVDF nitrocellulose membrane using a semi-dry apparatus. Membranes were blocked using 5% skim milk in Tris buffered saline and probed with monoclonal mouse anti-cyclin D1 (DCS-6, Biosource, Camarillo, Calif.), polyclonal rabbit anti-cyclin D2 (#2924, Cell Signalling Technology), monoclonal mouse anti-cyclin D3 (DCS-22, BioSource), polyclonal rabbit anti-c-Maf (M-153, Santa Cruz), polyclonal rabbit anti-Cleaved Caspase 9 (Asp315) (Cell Signaling Technology), monoclonal mouse anti-β-actin (Cell Signaling Technology) and/or monoclonal anti-a-tubulin (B-7)(Santa Cruz Biotechnology, Santa Cruz, Calif.). […]

Consider 1 compound from patent US8822440B2, “Inhibiting cyclin D polypeptides” (Mayo Foundation for Medical Education and Research, priority 2006, dated 2014).

A value given as a limit tells only on which side of the number the result lay.

Consider `OC[C@H]1O[C@@H](n2cnc3c(NCc4ccco4)ncnc32)[C@H](O)[C@@H]1O` [kinetin riboside, N6-Furfuryladenosine], for which the “kill of patient CD138+ myeloma cells” value in the series on CD138+ myeloma cells (5 μM, 48 hours) was found to be 92%. In addition, the “effect on primary CD138+ myeloma cells” value with CD138+ myeloma cells (patient bone marrow, 48 hours) is “most CD138+ cells become apoptotic”. For the same compound, the “activity against CD138+ myeloma cells compared with non malignant hematopoietic cells” value in the series with CD138+ myeloma cells (unsorted myeloma patient bone marrow samples) is reported as “selective activity”. In addition, the “time to Annexin-V surface binding and loss of CD138 expression” value in the series on HMCL [1] lay in the range of 24 to 96 h. Moreover, the “response of H929 cells” value in the series on HMCL [1] (H929, 10 μM) is listed as “apoptosis”. In addition, in the series with HMCL [1] (U266, 10 μM, 96 hours), the “response of U266 cells” value is recorded as “growth inhibition”. The cell cycle profile entry in the series on HMCL [2] (H929 and U266, 10 μM, 20 hours) is listed as “cell cycle arrest at G0/G1”. The “fall in proportion of cells entering S-phase” value in the series on HMCL [2] (all HMCL tested, 10 μM, within 20 hours) is listed as 50-70%. Besides, the “effect on neutrophil counts” value in series [3] (at 14 days treatment) is on record as “No effects”. Further, the “effect on body weight” value in series [3] (mouse, in vivo) is given as “No effects”. In addition, the “tolerability of rapidly repeated doses” value in series [3] (up to five per day at 85 mg/kg/dose) is given as “well tolerated”. In series [4], the “toxicity in CD138− bone marrow progenitor compartment” value was “only modest toxicity”. Besides, the “effect on non-malignant CD138− marrow cells” value in series [4] (human, 48 h, 5 μM) is on record as “leaving the majority of non-malignant CD138− marrow cells intact”. Further, in the series on caspase 9, the “time to caspase-9 cleavage” value was at most 16 h.
